Source: patent US20200002303A1, “C-GLYCOSIDE COMPOUNDS USEFUL FOR TREATING DISEASE” (Fimbrion Therapeutics, Inc., priority 2016, published 2020)

Experiments:
FimH = molecular target: T1, FimH (Escherichia coli, UniProt Q1R2J4); assay type: cell-based; details: concentration reducing bacterial agglutination of guinea pig red blood cells by greater than 90%; UTI89 bacteria
T1 construct: performed with UTI89 bacteria and guinea pig red blood cells; endogenous in cells; host or cells: UTI89 bacteria (whole cells, type 1 piliated)
Protocol: The hemagglutination inhibition (HAI) assay was performed with UTI89 bacteria and guinea pig red blood cells, as previously described (S. J. Hultgren, W. R. Schwan, A. J. Schaeffer, J. L. Duncan Infect. Immun. 1986, 54, 613-620).

FimHL = molecular target: T2, FimHL (Escherichia coli, UniProt P08191); assay: Differential scanning fluorimetry (DSF) with purified FimHL; assay type: binding; details: FimHL 10 μM with mannoside 100 μM, SYPRO Orange, HEPES pH 7.5; Tm from Boltzmann fit
T2 construct: Purified FimHL (10 μM) in the absence or presence of mannoside (100 μM)
Protocol: Purified FimHL (10 μM) in the absence or presence of mannoside (100 μM) was combined with 5×SYPRO Orange in a 50 μl reaction mixture buffered in 20 mM HEPES pH 7.5, 150 mM NaCl (HBS) and 0.4% DMSO. Binding equilibria were established by allowing the reaction mixtures to incubate at 23° C. for 30 min. These reaction mixtures were then placed in 96-well clear-bottom PCR plates and subjected to a melt curve from 20-90° C. in 0.5° C. increments of 15 seconds, each followed by a fluorescence read of the “HEX” channel in a Bio-Rad CFX96 thermocycler (Bio-Rad, Hercules, Calif.). Melt curves were fitted to the Boltzmann equation (y=A2+(A1−A2)/(1+exp((x−xo)/dx)) where xo is the Tm) to determine the melting temperature (Tm) using GraphPad Prism 6 (San Diego Calif.). Melting temperatures are represented as the mean and standard error of two biological replicates, each of which consisted of three technical replicates. Compounds not listed were not tested.

UTI89 bacteria = assay: Biofilm inhibition assay with UTI89 bacteria; assay type: cell-based; details: read-out: Biofilm prevention IC50
Protocol: The biofilm inhibition assay was performed with UTI89 bacteria as previously described (L. Cegelski, J. S. Pinkner, N. D. Hammer, C. K. Cusumano, C. S. Hung, E. Chorell, V. Aberg, J. N. Walker, P. C. Seed, F. Almqvist, M. R. Chapman, S. J. Hultgren Nature Chem. Biol. 2009, 5, 913-919). Compounds not listed were not tested.

Row | SMILES | HAI titer EC>90 (FimH) [µM] | DSF Melting Temp (FimHL) [°C] | IC50 (UTI89 bacteria) [µM]
1 | Cc1cc(-c2cccc3cnccc23)ccc1[C@@H](O)[C@H]1O[C@H](CO)[C@@H](O)[C@H](O)[C@@H]1O [Example 1, (2R,3S,4S,5S,6R)-2-((R)-hydroxy(4-(isoquinolin-5-yl)-2-methylphenyl)methyl)-6-(hydroxymethyl)tetrahydro-2H-pyran-3,4,5-triol] | 0.125 | 74.6 | 0.6
2 | Cc1cc(-c2ccc3cc[nH]c(=O)c3c2)ccc1[C@@H](O)[C@H]1O[C@H](CO)[C@@H](O)[C@H](O)[C@@H]1O [Example 2, 7-(4-((R)-hydroxy((2R,3S,4S,5S,6R)-3,4,5-trihydroxy-6-(hydroxymethyl)tetrahydro-2H-pyran-2-yl)methyl)-3-methylphenyl)isoquinolin-1 (2H)-one] | 0.006 | 77.5 | 0.03
